Reference: article PMC6321168, “Comparative Study on Excretive Characterization of Main Components in Herb Pair Notoginseng-Safflower and Single Herbs by LC–MS/MS” (Pharmaceutics, 2018)

Experiment: Fecal excretion study in rats after oral NS, SF or CNS (LC–MS/MS)
Type: in vivo
Conditions: rat feces
Procedure: The animal room was set at constant temperature of 20 ± 2 °C with humidity of 50 ± 20% and 12/12 h light/dark cycle.
Eighteen male rats were fasted for 12 h before starting the experiment. The rats were divided into three groups at random (n = 6) and received NS (60 mg/kg), SF (50 mg/kg), and NS (60 mg/kg) + SF (50 mg/kg), respectively, by oral gavage. The rats were placed in separate metabolic cages. The urine samples were collected at 0–2, 2–4, 4–6, 6–8, 8–12, 12–24, 24–36, 36–48, 48–72, 72–96, and 96–120 h. The feces samples were collected at 0–4, 4–8, 8–12, 12–24, 24–36, 36–48, 48–72, 72–96, and 96–120 h. The urine volume was recorded and the dry feces were measured for each collection period. Samples were stored at −80 °C until analysis.
Feces samples were homogenized in ultrapure water (1 g/15 mL), soaked for 30 min, ultrasonically extracted for 30 min and centrifuged at 9000 rpm for 8 min. An aliquot of 200 μL feces water extraction solution was mixed with 10 μL of IS and then extracted three times with water-saturated n-BuOH (150 μL). The upper organic phase was combined and evaporated to dryness using a ZLS-2 vacuum centrifugal concentrator. The residue was treated as the urine sample and a 1-μL aliquot was injected for LC–MS analysis.
Ultra fast liquid chromatography (UFLC) analysis was performed using a Shimadzu UFLC system (DGU-20A3R Degasser; LC-20AD pump; SIL-20AXR Autosampler; CTO-20AC Column Oven) (Nakagyo-Ku, Koyoto, Japan). […] Because of the different endogenous substances in the urine and feces samples, different elution gradients were used to alleviate the matrix effects for the analytes.
The mass spectrometric detection was performed on an ABSciex 4500 Qtrap mass spectrometer (ABSciex, Foster City, CA, USA) equipped with a negative electrospray ionization (ESI) interface using multiple reaction monitoring (MRM). The MS parameters were optimized under the selected ion monitoring conditions as follows: curtain gas, 35 psi; ionspray voltage, 4500 V; turbo gas temperature, 450 °C; GS1, 45 psi; GS2, 45 psi. All data were acquired and analyzed by Analyst software (Versions 1.6.2) from ABSciex.
The accumulative excretion percentage was calculated for each analyte as follows. Excretion at time (t) = [concentration of the analyte (ng/mL) at t] × total urine (or feces) volume (mL) at t. The cumulative excretion up to time t (mg) was expressed as a percent (%) cumulative excretion by dividing by the total amount of the analyte ingested (mg): % Cumulative Excretion = 100 × (Σt excretiont) total ingested.

With `CC(C)=CCC[C@](C)(O[C@@H]1O[C@H](CO[C@@H]2O[C@H](CO)[C@@H](O)[C@H](O)[C@H]2O)[C@@H](O)[C@H](O)[C@H]1O)[C@H]1CC[C@]2(C)[C@@H]1[C@H](O)C[C@@H]1[C@@]3(C)CC[C@H](O[C@@H]4O[C@H](CO)[C@@H](O)[C@H](O)[C@H]4O[C@@H]4O[C@H](CO)[C@@H](O)[C@H](O)[C@H]4O)C(C)(C)[C@@H]3CC[C@]12C` [ginsenoside Rb1] the concentration at 4 h (male, Sprague Dawley, oral CNS 110 mg/kg, 4 h) was 555 ± 763 ng/mL, the concentration at 8 h (male, Sprague Dawley, oral CNS 110 mg/kg, 8 h) was 1080 ± 431 ng/mL and the concentration at 12 h (male, Sprague Dawley, oral CNS 110 mg/kg, 12 h) was 899 ± 96 ng/mL. The concentration at 24 h (male, Sprague Dawley, oral CNS 110 mg/kg, 24 h) was 802 ± 25 ng/mL, the concentration at 36 h (male, Sprague Dawley, oral CNS 110 mg/kg, 36 h) was 548 ± 36 ng/mL and the concentration at 48 h (male, Sprague Dawley, oral CNS 110 mg/kg, 48 h) was 552 ± 30 ng/mL. For the same compound, the concentration at 72 h (male, Sprague Dawley, oral CNS 110 mg/kg, 72 h) was 455 ± 377 ng/mL, the concentration at 96 h (male, Sprague Dawley, oral CNS 110 mg/kg, 96 h) was 21 ± 20 ng/mL and the concentration at 4 h (male, Sprague Dawley, oral NS 60 mg/kg, 4 h) was 1080 ± 156 ng/mL. The concentration at 8 h (male, Sprague Dawley, oral NS 60 mg/kg, 8 h) was 767 ± 29 ng/mL, the concentration at 12 h (male, Sprague Dawley, oral NS 60 mg/kg, 12 h) was 2060 ± 137 ng/mL and the concentration at 24 h (male, Sprague Dawley, oral NS 60 mg/kg, 24 h) was 2180 ± 90 ng/mL. For the same compound, the concentration at 36 h (male, Sprague Dawley, oral NS 60 mg/kg, 36 h) was 920 ± 48 ng/mL, the concentration at 48 h (male, Sprague Dawley, oral NS 60 mg/kg, 48 h) was 1020 ± 52 ng/mL and the concentration at 72 h (male, Sprague Dawley, oral NS 60 mg/kg, 72 h) was 120 ± 9 ng/mL. For the same compound, the concentration at 96 h (male, Sprague Dawley, oral NS 60 mg/kg, 96 h) was 19 ± 4 ng/mL, the concentration at 120 h (male, Sprague Dawley, oral NS 60 mg/kg, 120 h) was 17 ± 3 ng/mL and the Accumulative excretion amount (oral CNS 110 mg/kg, 4 h) was 7.072 ± 10.199 µg. The Accumulative excretion percentage (oral CNS 110 mg/kg, 4 h) was 0.192±0.275%, the Excretion amount (oral CNS 110 mg/kg, 4 h) was 7.072 ± 10.199 µg and the Accumulative excretion amount (oral CNS 110 mg/kg, 8 h) was 22.570 ± 15.790 µg. For the same compound, the Accumulative excretion percentage (oral CNS 110 mg/kg, 8 h) was 0.607±0.426%, the Excretion amount (oral CNS 110 mg/kg, 8 h) was 15.499 ± 6.228 µg and the Accumulative excretion amount (oral CNS 110 mg/kg, 12 h) was 36.062 ± 14.935 µg. It also gave an Accumulative excretion percentage (oral CNS 110 mg/kg, 12 h) of 0.968±0.409%, an Excretion amount (oral CNS 110 mg/kg, 12 h) of 13.492 ± 4.335 µg and an Accumulative excretion amount (oral CNS 110 mg/kg, 24 h) of 48.081 ± 16.475 µg. It also gave an Accumulative excretion percentage (oral CNS 110 mg/kg, 24 h) of 1.282±0.443%, an Excretion amount (oral CNS 110 mg/kg, 24 h) of 12.018 ± 3.497 µg and an Accumulative excretion amount (oral CNS 110 mg/kg, 36 h) of 56.222 ± 17.772 µg. It also gave an Accumulative excretion percentage (oral CNS 110 mg/kg, 36 h) of 1.501±0.476%, an Excretion amount (oral CNS 110 mg/kg, 36 h) of 8.141 ± 2.259 µg and an Accumulative excretion amount (oral CNS 110 mg/kg, 48 h) of 64.538 ± 19.434 µg. The Accumulative excretion percentage (oral CNS 110 mg/kg, 48 h) was 1.723±0.522%, the Excretion amount (oral CNS 110 mg/kg, 48 h) was 8.316 ± 2.614 µg and the Accumulative excretion amount (oral CNS 110 mg/kg, 72 h) was 71.863 ± 19.005 µg. The Accumulative excretion percentage (oral CNS 110 mg/kg, 72 h) was 1.923±0.515%, the Excretion amount (oral CNS 110 mg/kg, 72 h) was 7.325 ± 6.432 µg and the Accumulative excretion amount (oral CNS 110 mg/kg, 96 h) was 72.213 ± 19.048 µg. The Accumulative excretion percentage (oral CNS 110 mg/kg, 96 h) was 1.931±0.512%, the Excretion amount (oral CNS 110 mg/kg, 96 h) was 0.350 ± 0.350 µg and the Accumulative excretion amount (oral CNS 110 mg/kg, 120 h) was 72.213 ± 19.048 µg. For the same compound, the Accumulative excretion percentage (oral CNS 110 mg/kg, 120 h) was 1.931±0.513%, the Accumulative excretion amount (oral NS 60 mg/kg, 4 h) was 15.357 ± 4.697 µg and the Accumulative excretion percentage (oral NS 60 mg/kg, 4 h) was 0.361±0.113%. It also gave an Excretion amount (oral NS 60 mg/kg, 4 h) of 15.357 ± 4.697 µg, an Accumulative excretion amount (oral NS 60 mg/kg, 8 h) of 26.423 ± 8.057 µg and an Accumulative excretion percentage (oral NS 60 mg/kg, 8 h) of 0.624±0.192%. The Excretion amount (oral NS 60 mg/kg, 8 h) was 11.066 ± 3.551 µg, the Accumulative excretion amount (oral NS 60 mg/kg, 12 h) was 56.148 ± 17.467 µg and the Accumulative excretion percentage (oral NS 60 mg/kg, 12 h) was 1.312±0.411%. For the same compound, the Excretion amount (oral NS 60 mg/kg, 12 h) was 29.724 ± 9.595 µg, the Accumulative excretion amount (oral NS 60 mg/kg, 24 h) was 87.371 ± 26.505 µg and the Accumulative excretion percentage (oral NS 60 mg/kg, 24 h) was 2.043±0.622%. It also gave an Excretion amount (oral NS 60 mg/kg, 24 h) of 31.223 ± 9.132 µg, an Accumulative excretion amount (oral NS 60 mg/kg, 36 h) of 100.721 ± 31.049 µg and an Accumulative excretion percentage (oral NS 60 mg/kg, 36 h) of 2.354±0.725%. It also gave an Excretion amount (oral NS 60 mg/kg, 36 h) of 13.350 ± 4.715 µg, an Accumulative excretion amount (oral NS 60 mg/kg, 48 h) of 115.527 ± 36.105 µg and an Excretion amount (oral NS 60 mg/kg, 48 h) of 14.806 ± 5.076 µg. It also gave an Accumulative excretion amount (oral NS 60 mg/kg, 72 h) of 117.237 ± 36.600 µg, an Accumulative excretion percentage (oral NS 60 mg/kg, 72 h) of 2.731±0.854% and an Excretion amount (oral NS 60 mg/kg, 72 h) of 1.710 ± 0.525 µg. The Accumulative excretion amount (oral NS 60 mg/kg, 96 h) was 117.502 ± 36.686 µg, the Accumulative excretion percentage (oral NS 60 mg/kg, 96 h) was 2.741±0.854% and the Excretion amount (oral NS 60 mg/kg, 96 h) was 0.264 ± 0.103 µg. For the same compound, the Accumulative excretion amount (oral NS 60 mg/kg, 120 h) was 117.753 ± 36.774 µg, the Accumulative excretion percentage (oral NS 60 mg/kg, 120 h) was 2.745±0.858% and the Excretion amount (oral NS 60 mg/kg, 120 h) was 0.252 ± 0.100 µg.
